Assay results reported in publication PMC10944509, “Structural and mechanistic insights into activation of the human RNA ligase RTCB by Archease” (Nature Communications, 2024).

Tests used:
[1] = target: T1, human RTCB-Archease complex (Homo sapiens, UniProt Q8IWT0+Q9Y3I0); assay: X-ray crystal structure, […] Å; assay type: binding; details: Mn2+ (sites A, B, C); RTCB active site, gamma-phosphate coordinated by Archease-bound Mn2+; non-hydrolyzable GTP analog; 291 K
T1 construct: full-length RTCB from Sf21 insect cells (His6 tag, TEV-cleaved optionally) with Archease isoform 1 from E. coli (N-terminal His6, thrombin site, tag removal optional); 1:1 complex
T1 sequence (Q9Y3I0 1-505): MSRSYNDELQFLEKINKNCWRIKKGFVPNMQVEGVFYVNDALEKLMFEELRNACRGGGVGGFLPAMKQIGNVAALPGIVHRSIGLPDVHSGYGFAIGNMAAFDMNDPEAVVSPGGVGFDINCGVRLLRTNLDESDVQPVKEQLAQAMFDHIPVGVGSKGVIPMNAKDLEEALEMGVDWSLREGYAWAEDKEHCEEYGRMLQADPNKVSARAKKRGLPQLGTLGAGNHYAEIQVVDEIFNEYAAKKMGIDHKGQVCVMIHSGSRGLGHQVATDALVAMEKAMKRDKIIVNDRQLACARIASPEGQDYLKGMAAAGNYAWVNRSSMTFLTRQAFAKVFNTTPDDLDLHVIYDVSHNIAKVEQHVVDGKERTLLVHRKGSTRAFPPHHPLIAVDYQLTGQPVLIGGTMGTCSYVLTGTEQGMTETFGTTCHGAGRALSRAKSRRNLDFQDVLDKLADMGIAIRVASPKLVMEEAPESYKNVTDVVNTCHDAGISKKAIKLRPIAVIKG
T1 sequence (Q8IWT0 1-167): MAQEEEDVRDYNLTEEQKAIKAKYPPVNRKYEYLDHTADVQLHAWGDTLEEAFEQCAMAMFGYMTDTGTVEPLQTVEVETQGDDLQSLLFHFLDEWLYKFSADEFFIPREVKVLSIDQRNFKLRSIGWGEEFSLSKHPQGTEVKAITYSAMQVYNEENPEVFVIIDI

[2] = target: T1, human RTCB-Archease complex; assay: X-ray crystal structure, […] Å; assay type: binding; details: covalent; phosphoramidate with RTCB H428, formed from GTP in co-crystallization; Mn2+ (sites A, C); 291 K
[3] = target: T1, human RTCB-Archease complex; assay: radioactive guanylylation assay, gel autoradiography; assay type: biochemical; details: covalent; labelled compound (alpha-32P-GTP 80 nM); RTCB 1 µM, Archease 1 µM, 0.5 mM MnCl2, pH 7.5, 30 °C
human RTCB (human) = human RTCB (human) (UniProt Q9Y3I0)

Q: How did the “X-ray crystal structure, 2.3 Å” value [1] turn out when `Nc1nc2c(ncn2[C@@H]2O[C@H](COP(=O)(O)CP(=O)(O)OP(=O)(O)O)[C@@H](O)[C@H]2O)c(=O)[nH]1` [GMPCPP, guanosine-5’-[(α,β)-methyleno]triphosphate] was run?
A: RTCB-Archease complex with a well-resolved GMPCPP molecule in the active site of RTCB

Q: How did the “X-ray crystal structure, 2.2 Å” value [2] turn out when `Nc1nc2c(ncn2[C@@H]2O[C@H](COP(=O)(O)O)[C@@H](O)[C@H]2O)c(=O)[nH]1` [GMP] was run?
A: GTP reacted with the active site histidine H428 to form the guanylylated RTCB-H428-GMP intermediate

Q: `Nc1nc2c(ncn2[C@@H]2O[C@H](COP(=O)(O)OP(=O)(O)OP(=O)(O)O)[C@@H](O)[C@H]2O)c(=O)[nH]1` [GTP] was tested. Which “radioactive guanylylation assay, gel autoradiography” value [3] did it give?
A: We detected the formation of guanylylated RTCB only in the presence of Archease

Q: “human Archease (isoform 1) (from UniProt Q8IWT0 1-167) (natural protein)” was tested. Which apparent rate constant of XBP1 intron circularization by RTCB (250 nM) with 1 uM Archease, GTP and Mn2+; no ligated product without Archease (human RTCB (human)) did it give?
A: 0.015 min⁻¹
